A value given as a limit tells only on which side of the number the result lay.

The first assay deals with human VPS34 (Homo sapiens (Human), UniProt Q8NEB9). As to the kind of experiment: Human VPS34 enzyme assay (Adapta TR-FRET ADP detection). Also on record: Percent Inhibition: dose or concentration left out as unconfirmed.
Chain of human VPS34 (Q8NEB9 whole entry): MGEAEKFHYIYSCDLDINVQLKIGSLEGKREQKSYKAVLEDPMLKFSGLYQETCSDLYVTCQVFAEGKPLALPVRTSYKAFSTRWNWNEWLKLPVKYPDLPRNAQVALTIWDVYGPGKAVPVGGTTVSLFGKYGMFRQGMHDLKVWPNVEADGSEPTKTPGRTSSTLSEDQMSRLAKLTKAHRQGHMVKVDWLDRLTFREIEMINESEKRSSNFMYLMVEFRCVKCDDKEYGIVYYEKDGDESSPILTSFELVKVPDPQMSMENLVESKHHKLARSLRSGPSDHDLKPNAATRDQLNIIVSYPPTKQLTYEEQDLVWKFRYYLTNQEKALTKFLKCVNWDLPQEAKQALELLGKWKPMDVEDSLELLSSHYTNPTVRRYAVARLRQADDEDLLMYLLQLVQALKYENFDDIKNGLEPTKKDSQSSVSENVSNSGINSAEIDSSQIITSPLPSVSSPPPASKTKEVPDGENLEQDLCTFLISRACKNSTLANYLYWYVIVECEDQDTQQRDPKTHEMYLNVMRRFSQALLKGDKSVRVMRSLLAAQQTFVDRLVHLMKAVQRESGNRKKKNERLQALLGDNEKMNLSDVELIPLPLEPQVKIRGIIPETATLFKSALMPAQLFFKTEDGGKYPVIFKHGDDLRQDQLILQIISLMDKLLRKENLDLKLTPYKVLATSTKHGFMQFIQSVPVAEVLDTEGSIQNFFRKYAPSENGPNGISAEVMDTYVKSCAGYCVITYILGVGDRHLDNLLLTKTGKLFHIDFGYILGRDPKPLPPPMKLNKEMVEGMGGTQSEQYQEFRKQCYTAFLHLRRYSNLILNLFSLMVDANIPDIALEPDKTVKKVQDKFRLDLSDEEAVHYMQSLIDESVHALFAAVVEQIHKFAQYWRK
Details: not given
The assay is classed as biochemical.
For `CC(=O)Nc1cc(-c2cnc(Cl)c(NS(=O)(=O)N(C)C)c2)ccn1` [Compound I-372, N-{6-chloro-5-[(dimethylsulfamoyl)amino]-3,4′-bipyridin-2′-yl}acetamide], the “Percent Inhibition” value is on record as more than 99%.

`Cc1cc(Nc2cc(-c3cnc(Cl)c(NS(=O)(=O)c4ccc(F)cc4F)c3C)ccn2)nc(C)n1` [Compound I-218, N-{6-chloro-2′-[(2,6-dimethylpyrimidin-4-yl)amino]-4-methyl-3,4′-bipyridin-5-yl}-2,4-difluorobenzenesulfonamide]: the “Percent Inhibition” value is on record as more than 99%.

With `CC(=O)Nc1cc(-c2cnc(Cl)c(NS(=O)(=O)c3cn(C)nc3C(F)(F)F)c2C)ccn1` [Compound I-493, N-[6-chloro-4-methyl-5-({[1-methyl-3-(trifluoromethyl)-1H-pyrazol-4-yl]sulfonyl}amino)-3,4′-bipyridin-2′-yl]acetamide], the “Percent Inhibition” value amounted to 99%.

The same assay, now with this note: IC50 range class.
For orientation: IC50 means the concentration at which inhibition is half-maximal. Regarding `CC(=O)Nc1cc(-c2cncc(S(=O)(=O)N3CCC(F)(F)CC3)c2)ccn1` [Compound I-9, N-{5-[(4,4-difluoropiperidin-1-yl)sulfonyl]-3,4′-bipyridin-2′-yl}acetamide], the IC50 is 10 to 50 nM.

Take `CC(=O)Nc1cc(-c2cnc3cn(S(=O)(=O)C4CC4)nc3c2)ccn1` [Compound I-105, N-{4-[2-(cyclopropylsulfonyl)-2H-pyrazolo[4,3-b]pyridin-6-yl]pyridin-2-yl}acetamide]: the IC50 was more than 100 nM.

On to `COc1ncc(-c2ccnc(NC(C)=O)c2)cc1S(=O)(=O)Nc1ccc(F)cc1F` [Compound I-107, N-{5-[(2,4-difluorophenyl)sulfamoyl]-6-methoxy-3,4′-bipyridin-2′-yl]acetamide], for which the concentration for half-maximal inhibition (IC50) was less than 10 nM.

With `COC(=O)Nc1cc(-c2cnc3[nH]ncc3c2)ccn1` [Compound I-38, Methyl [4-(1H-pyrazolo[3,4-b]pyridin-5-yl)pyridin-2-yl]carbamate], the IC50 was 10 to 50 nM.

Regarding `CC(=O)Nc1cc(-c2cnc(C)c(NS(=O)(=O)N3CCOCC3)c2)ccn1` [Compound I-447, N-{6-methyl-5-[(morpholin-4-ylsulfonyl)amino]-3,4′-bipyridin-2′-yl}acetamide], the concentration for half-maximal inhibition (IC50) is less than 10 nM.

Take `CC(=O)Nc1cc(-c2cnc(C)c(N3CCNS3(=O)=O)c2)ccn1` [Compound I-352, N-[5-(1,1-dioxido-1,2,5-thiadiazolidin-2-yl)-6-methyl-3,4′-bipyridin-2′-yl]acetamide]: the 50% inhibitory concentration (IC50) fell in the range of 50 to 100 nM.

Turning to `Cc1c(-c2ccnc(Nc3ccnc(C4CC4)n3)c2)cnc(Cl)c1NS(=O)(=O)c1ccc(F)cc1F` [Compound I-296, N-{6-chloro-2′-[(2-cyclopropylpyrimidin-4-yl)amino]-4-methyl-3,4′-bipyridin-5-yl}-2,4-difluorobenzenesulfonamide], the IC50 is 10 to 50 nM.

`CC(=O)Nc1cc(-c2cnc(Cl)c(NS(=O)(=O)c3ccc(Br)cc3F)c2C)ccn1` [Compound I-444, N-(5-{[(4-bromo-2-fluorophenyl)sulfonyl]amino}-6-chloro-4-methyl-3,4′-bipyridin-2′-yl)acetamide] yielded a concentration for half-maximal inhibition (IC50) of 10 to 50 nM.

With `CC(=O)Nc1cc(-c2cnc(Cl)c(NS(=O)(=O)c3c(Cl)cccc3Cl)c2C)ccn1` [Compound I-354, N-(6-chloro-5-{[(2,6-dichlorophenyl)sulfonyl]amino}-4-methyl-3,4′-bipyridin-2′-yl)acetamide], the IC50 fell in the range of 10 to 50 nM.

`CC(=O)Nc1cc(-c2cnc(Cl)c(NS(=O)(=O)N(C)C)c2)ccn1` [Compound I-372, N-{6-chloro-5-[(dimethylsulfamoyl)amino]-3,4′-bipyridin-2′-yl}acetamide] gave a half-inhibitory concentration (IC50) of less than 10 nM.

For `CC(=O)Nc1cc(-c2cnc3c(c2)c(S(=O)(=O)N2CCCC2)cn3C)ccn1` [Compound I-151, N-{4-[1-methyl-3-(pyrrolidin-1-ylsulfonyl)-1H-pyrrolo[2,3-b]pyridin-5-yl]pyridin-2-yl}acetamide], the half-maximal inhibitory concentration (IC50) lay within 10 to 50 nM.

In the case of `CC(=O)Nc1cc(-c2cnc(Cl)c(NS(=O)(=O)c3cccc4ncccc34)c2C)ccn1` [Compound I-437, N-{6-chloro-4-methyl-5-[(quinolin-5-ylsulfonyl)amino]-3,4′-bipyridin-2′-yl}acetamide], the 50% inhibitory concentration (IC50) lay within 10 to 50 nM.

Turning to `CC(=O)Nc1cc(-c2cncc(N3CCCS3(=O)=O)c2)ccn1` [Compound I-192, N-[5-(1,1-dioxidoisothiazolidin-2-yl)-3,4′-bipyridin-2′-yl]acetamide], the half-maximal inhibitory concentration (IC50) lay in the range of 50 to 100 nM.

For the compound `CCOc1cc(-c2ccnc(Nc3ccnc(C)n3)c2)cnc1C` [Compound I-479, 5-ethoxy-6-methyl-N-(2-methylpyrimidin-4-yl)-3,4′-bipyridin-2′-amine], the half-maximal inhibitory concentration (IC50) fell in the range of 10 to 50 nM.

In turn, `CC(=O)Nc1cc(-c2cnc(N)c(S(=O)(=O)Nc3ccccc3)c2)ccn1` [Compound I-43] yielded an IC50 of less than 10 nM.

For `CC(=O)Nc1cc(-c2cnc(N)c(S(=O)(=O)N3CCCC3)c2)ccn1` [Compound I-87, N-[6-amino-5-(pyrrolidin-1-ylsulfonyl)-3,4′-bipyridin-2′-yl]acetamide], the half-maximal inhibitory concentration (IC50) is less than 10 nM.

`N=C(N)NC(=O)c1cc(-c2ccnc(Nc3ccncn3)c2)cnc1N` [Compound I-216, 6-Amino-N-carbamimidoyl-2′-(pyrimidin-4-ylamino)-3,4′-bipyridine-5-carboxamide]: the half-maximal inhibitory concentration (IC50) lay within 50 to 100 nM.

Turning to `CC(=O)Nc1cc(-c2cnc(Cl)c(NS(=O)(=O)c3cc(Cl)ccc3Cl)c2C)ccn1` [Compound I-401, N-(6-chloro-5-{[(2,5-dichlorophenyl)sulfonyl]amino}-4-methyl-3,4′-bipyridin-2′-yl)acetamide], the IC50 was less than 10 nM.

Turning to `Cc1ncc(-c2ccnc(NC(=O)OCc3ccn(C)n3)c2)cc1NS(=O)(=O)c1ccc(F)cc1F` [Compound I-326, (1-methyl-1H-pyrazol-3-yl)methyl (5-{[(2,4-difluorophenyl)sulfonyl]amino}-6-methyl-3,4′-bipyridin-2′-yl)carbamate], the half-maximal inhibitory concentration (IC50) is less than 10 nM.

`CCN(CC)C(=O)c1cc(-c2ccnc(Nc3ccnc(C)n3)c2)cnc1C` [Compound I-302, N,N-diethyl-6-methyl-2′-[(2-methylpyrimidin-4-yl)amino]-3,4′-bipyridine-5-carboxamide]: the IC50 was in the range of 10 to 50 nM.

`CC(=O)Nc1cc(-c2cncc(Nc3ncco3)c2)ccn1` [Compound I-472, N-[5-(1,3-oxazol-2-ylamino)-3,4′-bipyridin-2′-yl]acetamide] showed an IC50 of more than 100 nM.

Regarding `Cc1ncc(-c2ccnc(Nc3ccnc(C4CC4)n3)c2)cc1NC(=O)N1CC(F)(F)C1` [Compound I-368, N-(2′-((2-cyclopropylpyrimidin-4-yl)amino)-6-methyl-[3,4′-bipyridin]-5-yl)-3,3-difluoroazetidine-1-carboxamide], the IC50 is 10 to 50 nM.

As for `CNc1c(Cl)ncc(-c2ccnc(Nc3ccnc(C)n3)c2)c1C` [Compound I-256, 6-chloro-N-5-4-dimethyl-N-2-(2-methylpyrimidin-4-yl)-3,4′-bipyridine-2′,5-diamine], the 50% inhibitory concentration (IC50) is 10 to 50 nM.

As to `COc1cc(C)ccc1S(=O)(=O)Nc1cc(-c2ccnc(NC(C)=O)c2)cnc1C` [Compound I-142, N-(5-{[(2-methoxy-4-methylphenyl)sulfonyl]amino}-6-methyl-3,4′-bipyridin-2′-yl)acetamide], the IC50 was less than 10 nM.

`CC(=O)Nc1cc(-c2cnc(N)c(S(=O)(=O)Nc3ccc4ccccc4c3)c2)ccn1` [Compound I-98, N-[6-amino-5-(2-naphthylsulfamoyl)-3,4′-bipyridin-2′-yl]acetamide]: the IC50 fell in the range of 10 to 50 nM.

The compound `CC(=O)Nc1cc(-c2cnc(Cl)c(NS(=O)(=O)c3ccccc3)c2)c(C)cn1` [Compound I-56, N-{6-chloro-5′-methyl-5-[(phenylsulfonyl)amino]-3,4′-bipyridin-2′-yl]acetamide] had an IC50 of 10 to 50 nM.

Compound `COc1cc(F)ccc1S(=O)(=O)Nc1cc(-c2ccnc(NC(C)=O)c2)cnc1C` [Compound I-58, N-(5-{[(4-fluoro-2-methoxyphenyl)sulfonyl]amino}-6-methyl-3,4′-bipyridin-2′-yl)acetamide] yielded an IC50 of less than 10 nM.

Compound `CC(=O)Nc1cc(-c2cnc3[nH]cc(CN4CCCC4)c3c2)ccn1` [Compound I-54, N-{4-[3-(pyrrolidin-1-ylmethyl)-1H-pyrrolo[2,3-b]pyridin-5-yl]pyridin-2-yl}acetamide] showed an IC50 of more than 100 nM.

The compound `Cc1nccc(Nc2cc(-c3cc(NS(=O)(=O)c4ccc(F)cc4F)c4ccnn4c3)ccn2)n1` [Compound I-486, 2,4-difluoro-N-(6-{2-[(2-methylpyrimidin-4-yl)amino]pyridin-4-yl}pyrazolo[1,5-a]pyridin-4-yl)benzenesulfonamide] returned an IC50 of less than 10 nM.

Take `Cc1cc(Nc2cc(-c3cnc(Cl)c(NS(=O)(=O)c4ccc(F)cc4F)c3C)ccn2)nc(C)n1` [Compound I-218, N-{6-chloro-2′-[(2,6-dimethylpyrimidin-4-yl)amino]-4-methyl-3,4′-bipyridin-5-yl}-2,4-difluorobenzenesulfonamide]: the IC50 is 10 to 50 nM.

Consider `CC(=O)Nc1cc(-c2cnc(Cl)c(S(=O)(=O)NC3CCC3)c2)ccn1` [Compound I-438, N-[6-chloro-5-(cyclobutylsulfamoyl)-3,4′-bipyridin-2′-yl]acetamide], for which the IC50 fell in the range of 10 to 50 nM.

On to `CC(=O)Nc1cc(-c2cnc(N)c(C(=O)Nc3ccccc3Cl)c2)ccn1` [Compound I-136, 2′-acetamido-6-amino-N-(2-chlorophenyl)-3,4′-bipyridine-5-carboxamide], for which the IC50 was less than 10 nM.

Compound `CC(=O)Nc1cc(-c2cnc3c(c2)S(=O)(=O)N(C24CC(C2)C4)CCO3)ccn1` [Compound I-376, N-{4-[2-(bicyclo[1.1.1]pent-1-yl)-1,1-dioxido-3,4-dihydro-2H-pyrido[2,3-b][1,4,5]oxathiazepin-8-yl]pyridin-2-yl}acetamide] displayed an IC50 of 10 to 50 nM.

As for `Cc1nccc(Nc2cc(-c3cnc4c(c3)C(=O)N(Cc3ccccc3)CC4)ccn2)n1` [Compound I-378, 6-benzyl-3-[2-[(2-methylpyrimidin-4-yl)amino]-4-pyridyl]-7,8-dihydro-1,6-naphthyridin-5-one], the IC50 was more than 100 nM.

For the compound `CC(=O)Nc1cc(-c2cnc(N(C)C)c(C(=O)Nc3ccc(F)cc3F)c2)ccn1` [Compound I-112, 2′-acetamido-N-(2,4-difluorophenyl)-6-(dimethylamino)-3,4′-bipyridine-5-carboxamide], the concentration for half-maximal inhibition (IC50) was in the range of 50 to 100 nM.

Consider `CC(=O)Nc1cc(-c2cnc(C#N)c(N3CCCCC3C)c2)ccn1` (stereo not shown) [Compound I-380, N-[6-cyano-5-(2-methylpiperidin-1-yl)-3,4′-bipyridin-2′-yl]acetamide], for which the half-maximal inhibitory concentration (IC50) was more than 100 nM.

`CC(=O)Nc1cc(-c2cnc(Cl)c(NS(=O)(=O)c3cn(C)nc3C(F)(F)F)c2C)ccn1` [Compound I-493, N-[6-chloro-4-methyl-5-({[1-methyl-3-(trifluoromethyl)-1H-pyrazol-4-yl]sulfonyl}amino)-3,4′-bipyridin-2′-yl]acetamide] displayed a half-maximal inhibitory concentration (IC50) of 10 to 50 nM.

The values are drawn from patent US9751854B2 (Millennium Pharmaceuticals, Inc., priority 2014, dated 2017).
